Source: US7608726B2, “Substituted indolepyridinium as anti-infective compounds” (Tibotec Pharmaceuticals Ltd., priority 2002, dated 2009)

Columns and labels:
[1] = Microsomal metabolization, human liver microsomes; format: in vitro ADME; settings: liver microsomal fractions
Description: Aliquots of human liver microsomal fractions (prepared by centrifugation at 12000 g^−1) were transferred into 10 ml glass tubes that are immersed in ice. Subsequently, test compound was added to yield a final concentration of 10 μM test compound. After adding 500 μl of a co-factor solution (cofactor solution: 1 mg/ml glucose-6-phosphate, 1 mg/ml MgCl2.6H2O, 0.5 units/ml glucose-6-phosphate dehydrogenase in 0.5 M phohsphate buffer. pH 7.4), homogenisation buffer (homogenisation buffer: 1,15% KCl in 0.05 M phosphate buffer, pH 7.4) was added to give a final volume of 1 ml. The incubations, 30 or 120 minutes at 37° C., were initiated by adding 10 μl of a solution of nicontinamide adenine dinucleotide phosphate (1.25 mg/ml) in homogenisation buffer. After a preincubation during 5 minutes at 37° C., the tubes were continuously shaken at 100 oscillations/minute in a water bath. The reactions were terminated by addition of an equal volume of DMSO. Blank incubations containing boiled microsomal fractions were incubated under the same conditions as the drug incubations. The degree of metabolism was determined by direct measurement of the residual parent compound in the reaction mixture using LC-MS. In parallel, the residual anti-HIV activity in the reaction mixture was detected using a colorimetric anti-HIV assay as described in Pauwels et al. J. Virol. Methods 1988 (20) 309-321. The residual activity is defined as the percent difference in EC50 between the drug incubations and the blank incubations.
The amount of compound was determined using LC-MS at the time points indicated between brackets. The results are indicated as a % vis-à-vis the amount determined at the start of the experiment (time=0; normalized to 100%).

wild type HIV-LAI strain = assay: Antiviral cellular assay (MT4 cells, MTT), wild type HIV-1 strain LAI; format: cell-based; settings: Human immunodeficiency virus 1, MT4; read-out: EC50, inhibition of wild-type HIV-LAI strain
Description: The compounds of the present invention were examined for anti-viral activity in a cellular assay. […] The cellular assay was performed according to the following procedure.
HIV- or mock-infected MT4 cells were incubated for five days in the presence of various concentrations of the inhibitor. At the end of the incubation period, the replicating virus in the control cultures has killed all HIV-infected cells in the absence of any inhibitor. Cell viability was determined by measuring the concentration of MTT, a yellow, water soluble tetrazolium dye that is converted to a purple, water insoluble formazan in the mitochondria of living cells only. Upon solubilization of the resulting formazan crystals with isopropanol, the absorbance of the solution was monitored at 540 nm. The values correlate directly to the number of living cells remaining in the culture at the completion of the five day incubation. The inhibitory activity of the compound was monitored on the virus-infected cells and was expressed as EC50 and EC90. These values represent the amount of the compound required to protect 50% and 90%, respectively, of the cells from the cytopathogenic effect of the virus. The toxicity of the compound was measured on the mock-infected cells and was expressed as CC50, which represents the concentration of compound required to inhibit the growth of the cells by 50%. The selectivity index (SI) (ratio CC50/EC50) is an indication of the selectivity of the anti-HIV activity of the inhibitor. Wherever results are reported as e.g. pEC50 or pCC50 values, the result is expressed as the negative logarithm of the result expressed as EC50 or CC50 respectively.
As a measure of the broad spectrum activity of the present compounds, the EC50 was determined. […] The fold resistance rounded to the nearest integer is mentioned between brackets.
Row WT: pEC50 against wild type HIV-LAI strain. The toxicity (Tox) is expressed as the pCC50 value as determined with mock transfected cells. ND means not determined.

## N#Cc1cc2c(c3ccccc3n2CCN2CCCC2)n(-c2ccc([N+](=O)[O-])cc2)c1=O [Compound 13, 1-(4-Nitro-phenyl)-2-oxo-5-(2-pyrrolidin-1-yl-ethyl)-2,5-dihydro-1H-pyrido[3,2-b]-indole-3-carbonitrile]
[1]
  hepatic first pass metabolization (microsomal): little or no hepatic first pass metabolization
Wild type HIV-LAI strain
  EC50: < 1000 nM
